For the data set, the system named is PMR or poly-myalga-rheumatica. Description: Example 19B: patient with PMR (poly-myalga-rheumatica), pain relief. Type of data set: in vivo, human. Particulars: for pain relief: PMR pain in neck, shoulders, hands, knees and ankles.

“Also recorded” adds a separate entry of the source.

The record followed here is patent publication US10143716B2, “Pawpaw and/or peach derived composition” (PHOENIX EAGLE COMPANY PTY LTD, priority 2002, dated 2018).

Consider `CC(=O)Nc1ccc(O)cc1` [Panamax], for which the pain relief entry is given as “not effective to relieve their pain”.
Regarding `Cc1ccc(-c2cc(C(F)(F)F)nn2-c2ccc(S(N)(=O)=O)cc2)cc1` [CELEBREX], the pain relief result is given as “proved to be effective; also recorded: effective as a painkiller”. The side-effects result (human, in vivo) is “did not cause the same side-effects; also recorded: adverse effect on the medication they were taking following a heart attack”.
